{"source": "patent US20230058557A1", "about": "“TRANSPLANTED CELL PROTECTION VIA INHIBITION OF POLYMORPHONUCLEAR CELLS” (The Regents of the University of California, priority 2020, published 2023)", "molecules": {"B1": {"name": "CD99 Fc chimera: Recombinant CD99 Fc chimera protein (R&D Systems 3968-CD-050), ligand for PIRLα (protein)", "chain": "DGGFDLSDALPDNENKKPTAIPKKPSAGDDFDLGDAVVDGENDDPRPPNPPKPMPNPNPNHPSSSGSFSDADLADGVSGGEGKGGSDGGGSHRKEGEEAD", "modifications": "left off: a dimerising Fc or GST", "notes": "Recombinant CD99 Fc chimera protein (R&D Systems 3968-CD-050), ligand for PIRLα"}, "B2": {"name": "CD200 Fc chimera: Recombinant human CD200 Fc chimera protein (R&D Systems 2724-CD-050), ligand for CD200R (protein)", "chain": "QVQVVTQDEREQLYTPASLKCSLQNAQEALIVTWQKKKAVSPENMVTFSENHGVVIQPAYKDKINITQLGLQNSTITFWNITLEDEGCYMCLFNTFGFGKISGTACLTVYVQPIVSLHYKFSEDHLNITCSATARPAPMVFWKVPRSGIENSTVTLSHPNGTTSVTSILHIKDPKNQVGKEVICQVLHLGTVTDFKQTVNKG", "modifications": "left off: a dimerising Fc or GST", "notes": "Recombinant human CD200 Fc chimera protein (R&D Systems 2724-CD-050), ligand for CD200R"}}, "key": {"[1]": {"tested_on": "human PMNs", "format": "cell-based", "description": "A comprehensive human immune assay was established using the XCelligence in vitro impedance system that obtains real-time kinetics of target cell killing. (ACEA BioSciences, San Diego, Calif., Catalog No. 00380601040). Wild-type (wt) and engineered iPSCs were differentiated into endothelial cells for this assay. […] Some experimental groups were treated with IL-2 (1 ng/ml), which is a central cytokine involved in allograft rejection. The assays were run for a duration of 90 h which is the maximum time period iECs can be cultured in this system before the monolayer breaks down spontaneously.\nThe immune system not only distinguishes between “self” and “non-self”, but also reacts to “danger” signals: released by autologous cells in distress. Matzinger, Ann. Rev. Immunol. 12:991-1045 (1994), incorporated by reference herein in its entirety. Intracellular components, released by damaged cells, can act as adjuvants and boost immune activation to alarm the immune system of cell death. Because apoptosis activates programmed cell death pathways aimed at digesting intracellular proteins, apoptotic cells are considered weak releasers of danger signals. […] For our in vitro assays, 20,000 target cells were sonicated to disrupt their cell membrane and release DAMPs and the cell debris was added to prior grown and confluent target iEC layer in Xcelligence assays.\nThus, for DAMP-activated XCelligence assays, iECs were plated and in addition to the immune effector cells, 20,000 sonicated target cells were added at the same time. […]\nLigands for CD200R and PIRLα are CD200 and CD99, respectively. Recombinant human CD200 Fc chimera proteins (R&D Systems, Minneapolis, Minn., Catalog no. 2724-CD-050) and CD99 Fc chimera proteins (R&D Systems, Minneapolis, Minn., Catalog no. 3968-CD-050) engage these receptors. These Fc chimera proteins were added to the assays at 10 μg/ml. There is no known ligand for SIRL-1 but there is an activating monoclonal SIRL-1 antibody to trigger downstream inhibitory signaling (Steevels T A., Eur J. Immunol. 43(5):1297-308 (2013)). The human PMNs were activated via DAMPs or IL-2 and the killing of human wt and HIP iECs was assessed (FIG. 8).\nBAY 85-8501 was used at 1 nM or 1 μM concentrations. The effector PMNs were stimulated with sonicated cells or IL-2.\nActivating receptors include the family of toll-like receptors (TLRs) that are activated by a wide range of ligands including DAMPs. PMN activation pathways were inhibited by TAK-242 (MedChem Express, Monmouth Junction, N.J., Catalog No. HY-11109, 10 μM for in vitro Xcelligence assays), a small-molecule inhibitor of TLR-4-mediated signaling. Wild-type and HIP cells were used on the XCelligence platform using PMNs as effector cells (FIG. 13). Necrotic cells or IL-2 were used as PMN stimulators."}, "[2]": {"details": "in mice; cited from earlier work"}, "[3]": {"details": "10 μM, DAMP- or IL-2 activated PMNs"}, "[4]": {"details": "PMNs activated via DAMPs (necrotic/sonicated cells), Fc chimera proteins 10 μg/ml"}, "[5]": {"details": "PMNs stimulated with IL-2, Fc chimera proteins 10 μg/ml"}}, "note": "“Also recorded” adds a separate entry of the source. Like-named read-outs stand apart in the source and are kept apart here.", "data": [{"molecule": "CC1=C(C#N)[C@@H](c2ccc(C#N)cc2S(C)(=O)=O)N(C)C(=O)N1c1cccc(C(F)(F)F)c1", "note": "[BAY 85-8501]", "values": [{"measurement": "PMN killing of wt or HIP target cells", "setting": "[1]; 1 nM, compared with 1 μM", "value": "less effective"}, {"measurement": "PMN killing of wt or HIP target cells", "setting": "[1]; 1 μM, PMNs activated via DAMPs from sonicated cells", "value": "fully prevented"}, {"measurement": "PMN killing of wt or HIP target cells", "setting": "[1]; 1 μM, in the presence of IL-2", "value": "further delayed the target cell killing"}]}, {"molecule": "CCOC(=O)C1=CCCC[C@H]1S(=O)(=O)Nc1ccc(F)cc1Cl", "note": "[TAK-242]", "values": [{"measurement": "PMN killing of wt and HIP iECs, efficacy by stimulator", "setting": "[1]; 10 μM, DAMPs compared with IL-2", "value": "stronger"}, {"measurement": "PMN killing of wt and HIP iECs", "setting": "[1]; 10 μM, IL-2", "value": "still markedly reduced"}, {"measurement": "PMN killing of wt and HIP iECs", "setting": "[1]; 10 μM, necrotic cells (DAMPs) or IL-2 as PMN stimulators", "value": "diminished PMN killing"}]}, {"molecule": "A1AT: Alpha-1 antitrypsin, Neutrophil Elastase inhibitor (Sigma-Aldrich A9024)", "values": [{"measurement": "PMN killing of wt and HIP iECs", "setting": "[1]; 30 μM recombinant A1AT", "value": "minorly effective; also recorded: some minor activity against PMN killing"}, {"measurement": "Half-life of A1AT", "setting": "[2]", "value": "approx. 4.5 days"}]}, {"molecule": "COc1cc(C(C)=O)ccc1O", "note": "[Apocynin]", "values": [{"measurement": "PMN killing of wt and HIP iECs", "setting": "[1]; [3]", "value": "diminished"}]}, {"molecule": "COc1cc2c(c(OC)c1OC)-c1ccc(OC)c(=O)cc1[C@@H](NC(C)=O)CC2", "note": "[colchicine]", "values": [{"measurement": "PMN killing of wt and HIP iECs", "setting": "[1]; 1 μM monotherapy, DAMP or IL-2 activated PMNs", "value": "mild inhibitor; also recorded: only marginal efficacy"}]}, {"molecule": "CC[C@H](Nc1ncnc2[nH]cnc12)c1nc2cccc(F)c2c(=O)n1-c1ccccc1", "note": "[Idelalisib]", "values": [{"measurement": "PMN killing of wt and HIP iECs", "setting": "[1]; [3]", "value": "mildly diminished PMN killing"}]}, {"molecule": "B1", "values": [{"measurement": "PMN killing of wt and HIP iECs", "setting": "[1]; [4]", "value": "prevented PMN killing"}, {"measurement": "PMN killing of wt and HIP iECs", "setting": "[1]; [5]", "value": "somewhat delayed"}, {"measurement": "PMN killing of wt and HIP iECs", "setting": "[1]; PMNs stimulated with IL-2, Fc chimera proteins 10 μg/ml, listed as CD99", "value": "delayed but not prevented"}]}, {"molecule": "B2", "values": [{"measurement": "PMN killing of wt and HIP iECs", "setting": "[1]; [4]", "value": "prevented PMN killing"}, {"measurement": "PMN killing of wt and HIP iECs", "setting": "[1]; [5]", "value": "somewhat delayed"}, {"measurement": "PMN killing of wt and HIP iECs", "setting": "[1]; PMNs stimulated with IL-2, Fc chimera proteins 10 μg/ml, listed as recombinant CD200", "value": "delayed but not prevented"}]}]}
